# Experimental data published in ChEMBL document CHEMBL5338777, “Small-Molecule Modulators Targeting Toll-like Receptors for Potential Anticancer Therapeutics” (J Med Chem, 2023).
# How the values were obtained:
# TLR2/TLR6 [1] = target: T1, TLR2/TLR6 (Homo sapiens, UniProt O60603+Q9Y2C9); experiment: Antagonist activity at human TLR2/TLR6; type: protein-complex assay
# Toll-like receptor 1/2 [2] = target: T2, Toll-like receptor 1/2 (Homo sapiens, UniProt O60603+Q15399); experiment: Antagonist activity at human TLR1/TLR2; type: protein-complex assay
# Toll-like receptor 3 = target: T3, Toll-like receptor 3 (Homo sapiens, UniProt O15455); experiment: Antagonist activity at TLR3 (unknown origin)
# T3 sequence (O15455 whole entry): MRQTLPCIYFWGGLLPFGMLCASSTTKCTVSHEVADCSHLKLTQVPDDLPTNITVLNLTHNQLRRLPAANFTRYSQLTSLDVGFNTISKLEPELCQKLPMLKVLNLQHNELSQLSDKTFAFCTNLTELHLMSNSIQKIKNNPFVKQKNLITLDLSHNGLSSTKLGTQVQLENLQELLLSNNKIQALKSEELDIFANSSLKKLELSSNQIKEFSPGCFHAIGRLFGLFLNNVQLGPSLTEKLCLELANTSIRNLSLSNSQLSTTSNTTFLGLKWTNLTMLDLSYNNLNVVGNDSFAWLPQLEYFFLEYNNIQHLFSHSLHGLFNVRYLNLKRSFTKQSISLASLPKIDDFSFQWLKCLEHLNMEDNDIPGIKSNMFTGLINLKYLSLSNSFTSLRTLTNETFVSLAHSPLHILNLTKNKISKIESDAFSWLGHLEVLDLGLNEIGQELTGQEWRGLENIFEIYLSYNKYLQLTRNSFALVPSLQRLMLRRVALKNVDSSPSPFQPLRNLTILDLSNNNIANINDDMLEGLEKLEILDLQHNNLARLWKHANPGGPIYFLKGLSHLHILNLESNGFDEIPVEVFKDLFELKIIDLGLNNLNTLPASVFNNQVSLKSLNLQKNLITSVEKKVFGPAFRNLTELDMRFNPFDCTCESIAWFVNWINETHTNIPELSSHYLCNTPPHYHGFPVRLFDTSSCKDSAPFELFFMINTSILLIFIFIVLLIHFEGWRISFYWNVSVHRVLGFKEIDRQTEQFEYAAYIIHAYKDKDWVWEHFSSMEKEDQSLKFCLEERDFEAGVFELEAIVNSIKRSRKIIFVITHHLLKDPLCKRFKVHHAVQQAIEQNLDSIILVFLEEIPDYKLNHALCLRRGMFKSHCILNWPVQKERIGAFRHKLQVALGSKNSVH
# [3] = Antagonist activity at TLR2/TLR4 (unknown origin); parameters: species or system Homo sapiens
# Toll-like receptor 7 [4] = target: T4, Toll-like receptor 7 (Homo sapiens, UniProt Q9NYK1)
# T4 sequence (Q9NYK1 whole entry): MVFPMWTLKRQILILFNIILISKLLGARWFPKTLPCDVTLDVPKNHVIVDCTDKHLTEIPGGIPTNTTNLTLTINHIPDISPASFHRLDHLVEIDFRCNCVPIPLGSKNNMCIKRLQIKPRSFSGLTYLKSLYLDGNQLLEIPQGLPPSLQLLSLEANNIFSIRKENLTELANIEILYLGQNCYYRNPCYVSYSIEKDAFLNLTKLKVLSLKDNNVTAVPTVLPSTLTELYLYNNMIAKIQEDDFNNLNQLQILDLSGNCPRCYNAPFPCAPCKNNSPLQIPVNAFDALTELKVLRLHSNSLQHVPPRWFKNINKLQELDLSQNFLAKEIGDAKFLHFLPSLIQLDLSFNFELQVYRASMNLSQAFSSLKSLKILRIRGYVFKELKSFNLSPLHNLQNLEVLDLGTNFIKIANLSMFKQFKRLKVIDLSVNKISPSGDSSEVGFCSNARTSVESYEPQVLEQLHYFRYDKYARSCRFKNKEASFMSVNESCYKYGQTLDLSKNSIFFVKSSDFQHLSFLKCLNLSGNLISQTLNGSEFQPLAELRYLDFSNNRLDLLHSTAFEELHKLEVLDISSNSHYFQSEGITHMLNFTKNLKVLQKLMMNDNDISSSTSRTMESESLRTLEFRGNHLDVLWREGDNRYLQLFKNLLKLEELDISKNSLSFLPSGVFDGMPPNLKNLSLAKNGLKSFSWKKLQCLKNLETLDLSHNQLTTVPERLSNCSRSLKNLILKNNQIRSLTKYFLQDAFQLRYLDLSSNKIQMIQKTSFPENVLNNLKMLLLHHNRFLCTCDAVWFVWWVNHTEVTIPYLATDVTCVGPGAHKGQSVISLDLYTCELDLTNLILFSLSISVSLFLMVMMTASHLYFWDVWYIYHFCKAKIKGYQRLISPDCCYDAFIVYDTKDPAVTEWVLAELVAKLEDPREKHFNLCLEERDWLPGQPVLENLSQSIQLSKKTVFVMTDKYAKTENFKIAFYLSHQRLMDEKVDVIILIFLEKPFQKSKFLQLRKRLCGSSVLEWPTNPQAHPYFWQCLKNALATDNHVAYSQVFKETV
# Description: (§1) Agonist activity at TLR7 (unknown origin)
# Toll-like receptor 4 [5] = target: Toll-like receptor 4 (Homo sapiens, UniProt O00206); experiment: Inhibition of TLR4 in human HEK293T cells co-expressing MD-2 receptor; type: cell-based
# Toll-like receptor 4 [6] = target: T5, Toll-like receptor 4 (Mus musculus, UniProt Q9QUK6); experiment: Antagonist activity at TLR4 in mouse peritoneal macrophages assessed as inhibition of NO production; type: cell-based, Peritoneal macrophage
# T5 sequence (Q9QUK6 whole entry): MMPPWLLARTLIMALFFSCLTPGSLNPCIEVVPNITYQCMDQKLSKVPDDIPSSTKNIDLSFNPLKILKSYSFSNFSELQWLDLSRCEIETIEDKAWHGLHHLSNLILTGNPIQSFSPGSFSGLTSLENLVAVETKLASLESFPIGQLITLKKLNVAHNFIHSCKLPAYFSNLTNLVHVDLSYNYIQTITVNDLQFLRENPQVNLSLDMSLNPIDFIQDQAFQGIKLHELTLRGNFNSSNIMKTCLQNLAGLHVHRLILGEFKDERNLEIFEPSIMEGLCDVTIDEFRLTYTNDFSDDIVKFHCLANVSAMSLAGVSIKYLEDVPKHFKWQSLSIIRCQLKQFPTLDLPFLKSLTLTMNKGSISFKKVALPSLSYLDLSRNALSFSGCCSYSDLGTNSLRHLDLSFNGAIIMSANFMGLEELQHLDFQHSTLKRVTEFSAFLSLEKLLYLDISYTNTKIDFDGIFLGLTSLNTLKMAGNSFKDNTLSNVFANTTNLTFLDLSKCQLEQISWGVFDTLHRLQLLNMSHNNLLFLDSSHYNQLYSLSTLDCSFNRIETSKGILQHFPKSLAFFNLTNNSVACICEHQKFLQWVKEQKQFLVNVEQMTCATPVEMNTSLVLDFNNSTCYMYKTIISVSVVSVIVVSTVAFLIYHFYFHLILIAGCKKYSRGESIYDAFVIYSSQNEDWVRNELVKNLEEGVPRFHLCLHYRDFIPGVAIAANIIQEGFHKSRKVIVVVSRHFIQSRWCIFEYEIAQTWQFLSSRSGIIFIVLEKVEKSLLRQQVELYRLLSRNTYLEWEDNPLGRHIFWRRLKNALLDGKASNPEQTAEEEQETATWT
# Toll-like receptor 4 [7] = target: T5, Toll-like receptor 4; experiment: Antagonist activity at TLR4 in mouse peritoneal macrophages assessed as inhibition of TNF-alpha production; type: cell-based, Peritoneal macrophage
# Toll-like receptor 4 [8] = target: T5, Toll-like receptor 4; experiment: Antagonist activity at TLR4 in mouse peritoneal macrophages assessed as inhibition of IL-6 production; type: cell-based, Peritoneal macrophage
# Toll-like receptor 8 [9] = target: T6, Toll-like receptor 8 (Homo sapiens, UniProt Q9NR97)
# T6 sequence (Q9NR97 whole entry): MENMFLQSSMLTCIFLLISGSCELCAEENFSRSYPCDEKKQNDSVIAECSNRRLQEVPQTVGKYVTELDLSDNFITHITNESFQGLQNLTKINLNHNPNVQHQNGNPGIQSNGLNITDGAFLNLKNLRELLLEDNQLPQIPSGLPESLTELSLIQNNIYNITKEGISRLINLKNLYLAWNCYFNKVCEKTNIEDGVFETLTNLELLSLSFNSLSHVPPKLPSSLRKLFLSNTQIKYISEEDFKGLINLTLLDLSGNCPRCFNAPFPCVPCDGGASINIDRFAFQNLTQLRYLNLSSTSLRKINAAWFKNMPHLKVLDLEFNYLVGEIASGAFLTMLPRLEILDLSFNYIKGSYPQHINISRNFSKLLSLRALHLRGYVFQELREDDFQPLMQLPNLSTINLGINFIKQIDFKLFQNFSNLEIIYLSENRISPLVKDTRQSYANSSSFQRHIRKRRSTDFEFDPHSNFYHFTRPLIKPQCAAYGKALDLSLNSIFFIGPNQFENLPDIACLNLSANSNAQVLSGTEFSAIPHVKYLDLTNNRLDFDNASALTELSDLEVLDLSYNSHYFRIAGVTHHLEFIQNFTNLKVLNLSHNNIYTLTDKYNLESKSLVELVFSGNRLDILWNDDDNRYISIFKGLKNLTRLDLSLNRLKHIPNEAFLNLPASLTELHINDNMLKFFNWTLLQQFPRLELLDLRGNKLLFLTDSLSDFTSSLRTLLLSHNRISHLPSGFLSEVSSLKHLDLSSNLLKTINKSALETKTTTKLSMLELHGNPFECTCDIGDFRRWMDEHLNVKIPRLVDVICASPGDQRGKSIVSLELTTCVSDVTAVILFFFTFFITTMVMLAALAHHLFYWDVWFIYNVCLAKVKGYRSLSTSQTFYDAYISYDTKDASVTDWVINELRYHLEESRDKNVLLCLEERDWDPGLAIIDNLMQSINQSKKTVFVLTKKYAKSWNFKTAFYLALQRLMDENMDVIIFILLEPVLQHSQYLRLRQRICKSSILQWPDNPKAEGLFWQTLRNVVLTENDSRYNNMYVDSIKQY
# Description: (§2) Agonist activity at TLR8 (unknown origin)
# Toll-like receptor 8 [10] = target: T6, Toll-like receptor 8; remark: listed apart in the source
# Description: as §2
# Toll-like receptor 5 = Toll-like receptor 5 (Homo sapiens, UniProt O60602); experiment: Antagonist activity at TLR5 (unknown origin)
# TLR2/TLR6 [11] = target: T1, TLR2/TLR6; experiment: Antagonist activity at TLR2/TLR6 in human THP-1 cells; type: cell-based
# Toll-like receptor 1/2 [12] = target: T2, Toll-like receptor 1/2; experiment: Antagonist activity at TLR1/TLR2 in HEK-Blue hTLR2 cells; type: cell-based
# Toll-like receptor 1/2 [13] = target: T2, Toll-like receptor 1/2; experiment: Antagonist activity at TLR1/TLR2 (unknown origin); type: protein-complex assay
# Toll-like receptor 8 [14] = target: T6, Toll-like receptor 8; experiment: Binding affinity to human TLR8 expressed in HEK-Blue hTLR8 cells; type: cell-based
# Toll-like receptor 8 [15] = target: T6, Toll-like receptor 8; experiment: Antagonist activity at human TLR8
# Toll-like receptor 1/2 [16] = target: T2, Toll-like receptor 1/2
# Description: Agonist activity at TLR1/TLR2 in human THP-1 cells
# Toll-like receptor 7 [17] = target: T4, Toll-like receptor 7; remark: listed apart in the source
# Description: as §1
# T1 sequence (O60603 whole entry): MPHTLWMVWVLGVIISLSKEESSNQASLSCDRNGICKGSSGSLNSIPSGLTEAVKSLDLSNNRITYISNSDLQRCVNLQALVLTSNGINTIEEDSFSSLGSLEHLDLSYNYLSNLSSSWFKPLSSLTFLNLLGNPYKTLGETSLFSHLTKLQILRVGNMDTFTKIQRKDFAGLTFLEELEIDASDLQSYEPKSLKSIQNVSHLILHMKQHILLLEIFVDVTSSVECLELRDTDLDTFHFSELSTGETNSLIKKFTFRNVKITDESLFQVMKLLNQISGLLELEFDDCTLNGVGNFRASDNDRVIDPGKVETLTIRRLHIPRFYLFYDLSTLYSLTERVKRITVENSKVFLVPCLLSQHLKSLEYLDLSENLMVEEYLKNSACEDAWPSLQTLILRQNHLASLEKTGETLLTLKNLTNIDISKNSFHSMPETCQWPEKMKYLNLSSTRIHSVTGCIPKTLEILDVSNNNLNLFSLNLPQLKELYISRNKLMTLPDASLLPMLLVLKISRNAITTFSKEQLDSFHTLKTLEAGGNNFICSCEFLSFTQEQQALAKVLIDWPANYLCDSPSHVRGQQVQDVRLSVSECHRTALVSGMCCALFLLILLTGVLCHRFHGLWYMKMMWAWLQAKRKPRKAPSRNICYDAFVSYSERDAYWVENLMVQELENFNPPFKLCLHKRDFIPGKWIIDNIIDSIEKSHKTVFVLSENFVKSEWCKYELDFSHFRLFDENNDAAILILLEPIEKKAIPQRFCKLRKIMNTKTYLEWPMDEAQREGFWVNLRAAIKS
# T1 sequence (Q9Y2C9 whole entry): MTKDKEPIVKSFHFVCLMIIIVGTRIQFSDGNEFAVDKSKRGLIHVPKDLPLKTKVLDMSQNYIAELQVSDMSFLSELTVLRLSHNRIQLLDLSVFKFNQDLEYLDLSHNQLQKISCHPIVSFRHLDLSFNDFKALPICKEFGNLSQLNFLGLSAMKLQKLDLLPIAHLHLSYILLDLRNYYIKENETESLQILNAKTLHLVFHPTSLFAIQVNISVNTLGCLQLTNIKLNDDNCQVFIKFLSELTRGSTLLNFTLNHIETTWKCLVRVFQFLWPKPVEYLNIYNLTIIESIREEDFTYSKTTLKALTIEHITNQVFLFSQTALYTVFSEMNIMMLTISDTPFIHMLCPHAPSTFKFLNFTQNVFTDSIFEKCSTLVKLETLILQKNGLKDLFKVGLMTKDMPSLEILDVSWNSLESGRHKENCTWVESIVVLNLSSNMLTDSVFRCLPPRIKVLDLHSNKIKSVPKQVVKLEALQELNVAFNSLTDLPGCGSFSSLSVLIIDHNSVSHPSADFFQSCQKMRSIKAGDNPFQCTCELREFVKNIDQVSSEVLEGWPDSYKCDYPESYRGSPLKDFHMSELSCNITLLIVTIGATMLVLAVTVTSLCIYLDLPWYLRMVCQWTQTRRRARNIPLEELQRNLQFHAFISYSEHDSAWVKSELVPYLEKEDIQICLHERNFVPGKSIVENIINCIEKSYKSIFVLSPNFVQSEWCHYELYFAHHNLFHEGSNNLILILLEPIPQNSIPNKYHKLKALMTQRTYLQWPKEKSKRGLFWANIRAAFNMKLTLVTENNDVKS
# T2 sequence (O60603 whole entry): as the sequence (O60603 whole entry) above
# T2 sequence (Q15399 whole entry): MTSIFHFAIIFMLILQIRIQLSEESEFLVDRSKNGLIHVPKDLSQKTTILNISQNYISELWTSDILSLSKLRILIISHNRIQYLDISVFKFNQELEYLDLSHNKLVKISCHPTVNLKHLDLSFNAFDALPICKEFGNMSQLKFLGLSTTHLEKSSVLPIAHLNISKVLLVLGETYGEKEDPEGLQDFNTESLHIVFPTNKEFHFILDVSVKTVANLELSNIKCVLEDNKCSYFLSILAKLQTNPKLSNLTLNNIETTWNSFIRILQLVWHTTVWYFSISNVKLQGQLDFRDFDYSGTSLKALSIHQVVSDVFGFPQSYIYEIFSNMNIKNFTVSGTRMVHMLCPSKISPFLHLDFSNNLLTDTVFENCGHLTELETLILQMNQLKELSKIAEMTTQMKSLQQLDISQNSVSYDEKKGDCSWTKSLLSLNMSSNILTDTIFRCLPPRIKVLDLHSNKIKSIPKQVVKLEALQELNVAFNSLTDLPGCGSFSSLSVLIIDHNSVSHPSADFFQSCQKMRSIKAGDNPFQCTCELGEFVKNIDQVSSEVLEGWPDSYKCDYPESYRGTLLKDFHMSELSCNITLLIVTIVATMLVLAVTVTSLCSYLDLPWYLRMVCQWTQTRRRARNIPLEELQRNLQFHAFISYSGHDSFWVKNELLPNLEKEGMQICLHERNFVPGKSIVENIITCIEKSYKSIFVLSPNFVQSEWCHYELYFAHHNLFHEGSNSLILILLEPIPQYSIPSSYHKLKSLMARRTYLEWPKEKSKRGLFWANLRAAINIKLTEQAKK
# Sequence of Toll-like receptor 5 (O60602 whole entry): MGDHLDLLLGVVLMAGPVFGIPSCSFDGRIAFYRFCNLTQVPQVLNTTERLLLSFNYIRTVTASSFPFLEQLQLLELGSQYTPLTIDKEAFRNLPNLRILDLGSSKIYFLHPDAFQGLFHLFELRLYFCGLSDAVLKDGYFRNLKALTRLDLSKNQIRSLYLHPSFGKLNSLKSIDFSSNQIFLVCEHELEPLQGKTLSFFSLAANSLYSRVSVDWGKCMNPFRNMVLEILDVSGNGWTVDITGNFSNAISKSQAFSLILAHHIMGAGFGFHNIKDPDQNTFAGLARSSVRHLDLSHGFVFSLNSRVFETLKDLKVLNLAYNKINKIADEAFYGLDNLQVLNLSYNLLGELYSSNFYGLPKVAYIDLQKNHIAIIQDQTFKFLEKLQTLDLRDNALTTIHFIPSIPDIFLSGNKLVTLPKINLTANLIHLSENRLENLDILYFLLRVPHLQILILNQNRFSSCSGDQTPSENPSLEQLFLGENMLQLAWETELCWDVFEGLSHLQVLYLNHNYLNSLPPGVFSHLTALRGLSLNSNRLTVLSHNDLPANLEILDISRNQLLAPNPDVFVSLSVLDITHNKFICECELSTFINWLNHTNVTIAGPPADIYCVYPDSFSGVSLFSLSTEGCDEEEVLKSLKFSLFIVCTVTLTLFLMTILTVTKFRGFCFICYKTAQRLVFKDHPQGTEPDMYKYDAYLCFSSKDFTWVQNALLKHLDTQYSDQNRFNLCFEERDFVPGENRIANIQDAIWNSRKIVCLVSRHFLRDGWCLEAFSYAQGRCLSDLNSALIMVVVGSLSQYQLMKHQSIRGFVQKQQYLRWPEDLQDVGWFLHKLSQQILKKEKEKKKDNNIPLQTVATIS
# Sequence of Toll-like receptor 4 (Homo sapiens, UniProt O00206) (O00206 whole entry): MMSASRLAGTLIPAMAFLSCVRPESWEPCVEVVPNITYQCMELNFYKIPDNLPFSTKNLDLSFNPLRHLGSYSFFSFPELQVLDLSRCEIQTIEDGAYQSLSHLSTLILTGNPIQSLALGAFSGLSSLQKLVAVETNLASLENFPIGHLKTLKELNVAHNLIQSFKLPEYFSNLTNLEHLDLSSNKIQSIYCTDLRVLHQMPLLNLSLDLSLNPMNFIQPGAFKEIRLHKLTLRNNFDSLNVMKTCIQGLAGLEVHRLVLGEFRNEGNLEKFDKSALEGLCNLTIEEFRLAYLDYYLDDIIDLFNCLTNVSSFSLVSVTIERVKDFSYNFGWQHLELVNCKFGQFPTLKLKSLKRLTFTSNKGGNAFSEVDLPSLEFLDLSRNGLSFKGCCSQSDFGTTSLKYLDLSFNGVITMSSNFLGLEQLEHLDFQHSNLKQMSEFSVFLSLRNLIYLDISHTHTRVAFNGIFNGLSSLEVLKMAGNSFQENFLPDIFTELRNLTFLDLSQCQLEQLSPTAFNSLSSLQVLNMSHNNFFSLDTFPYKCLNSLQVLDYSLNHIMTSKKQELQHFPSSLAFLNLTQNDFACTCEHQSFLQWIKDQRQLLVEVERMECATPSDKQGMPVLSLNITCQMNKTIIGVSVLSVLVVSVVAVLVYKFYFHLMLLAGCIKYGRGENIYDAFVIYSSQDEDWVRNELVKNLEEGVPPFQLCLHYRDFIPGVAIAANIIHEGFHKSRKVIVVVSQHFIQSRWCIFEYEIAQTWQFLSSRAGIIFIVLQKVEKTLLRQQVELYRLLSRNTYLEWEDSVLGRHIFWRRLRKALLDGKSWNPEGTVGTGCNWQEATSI
compound,measurement,setting,value
CCOC(=O)c1ccc(CC(=O)c2ccc(O)c(O)c2O)o1,IC50,TLR2/TLR6 [1],5700 nM
same,IC50,Toll-like receptor 1/2 [2],1700 nM
O=C(N[C@H](Cc1ccccc1)C(=O)O)c1cc2c(s1)CCCCC2,IC50,Toll-like receptor 3,154000 nM
O=C(N[C@H](Cc1ccccc1)C(=O)O)c1sc2cc(F)ccc2c1Cl,IC50,Toll-like receptor 3,3440 nM
O=c1occ2c3c(ccc(O)c13)Oc1ccc(O)cc1-2,IC50,[3],~10000 nM
CCCN(CCC)C(=O)C1=Cc2ccc(C(=O)NC(c3ccccc3)c3ccccc3)cc2N=C(N)C1,EC50,Toll-like receptor 7 [4],> 100 nM
CCCCCCCCCC(CCCCCCCCC)CC(=O)OC[C@H]1O[C@H](O[C@H]2O[C@H](COC(=O)CC(CCCCCCCCC)CCCCCCCCC)[C@@H](O)[C@H](O)[C@H]2O)[C@H](O)[C@@H](O)[C@@H]1O [VIZANTIN],IC50,Toll-like receptor 4 [5],53 nM
CCOC(=O)C1=CCCC[C@H]1S(=O)(=O)Nc1ccc(F)cc1Cl [RESATORVID],IC50,Toll-like receptor 4 [6],1.8 nM
same,IC50,Toll-like receptor 4 [7],1.9 nM
same,IC50,Toll-like receptor 4 [8],1.3 nM
CCCCc1nc2c(N)nc3ccccc3c2o1,EC50,Toll-like receptor 8 [9],180 nM
CCCN(CCC)C(=O)C1=Cc2ccc(-c3ccc(C(=O)N4CCCC4)cc3)cc2N=C(N)C1 [MOTOLIMOD],EC50,Toll-like receptor 8 [10],~100 nM
CCCN(CCC)C(=O)C1=Cc2ccc(C(=O)N3CC4(C3)CN(c3ccc(C)cc3)C4)cc2N=C(N)C1,EC50,Toll-like receptor 7 [4],> 100 nM
COCCOc1nc(N)c2[nH]c(=O)n(Cc3ccccc3)c2n1,EC50,Toll-like receptor 7 [4],140 nM
Cc1cc(C)c2c(n1)sc1c(Sc3nnc(-c4ccncc4)o3)ncnc12,IC50,Toll-like receptor 5,50500 nM
COc1cccc(/C=N/c2cccc(C(=O)O)c2C)c1O,IC50,TLR2/TLR6 [11],37600 nM
same,IC50,Toll-like receptor 1/2 [12],19700 nM
CCCCCCOC(=O)c1cc(O)c(=O)c2c(O)c(O)c(OC)cc2c1,IC50,TLR2/TLR6 [1],5600 nM
same,IC50,Toll-like receptor 1/2 [13],580 nM
same,IC50,Toll-like receptor 1/2 [2],9100 nM
CCc1nc2c(N)nc3ccccc3c2n1CCCCNS(C)(=O)=O [CPG-52852],EC50,Toll-like receptor 7 [4],~3000 nM
Cc1cccc(-c2ccnc3c(C(N)=O)cnn23)c1,Kd,Toll-like receptor 8 [14],220 nM
c1cnc2sc3c(Sc4nnc(-c5ccncc5)o4)ncnc3c2c1,IC50,Toll-like receptor 5,3380 nM
COc1ccc2c(-c3cnc(OCc4ccccc4)c(C)c3)ccnc2c1,IC50,Toll-like receptor 8 [15],0.8 nM
c1ccc(-n2c(Sc3ncnc4c3sc3ncccc34)nnc2-c2ccncc2)cc1,IC50,Toll-like receptor 5,3130 nM
CCOC(=O)c1c(NC(=O)N2CCN(C)CC2)sc2c1CCC2,EC50,Toll-like receptor 1/2 [16],550 nM
CCCN(CCC)C(=O)C1=Cc2ccc(-c3cccc(C(=O)CC)c3)cc2N=C(N)C1,EC50,Toll-like receptor 8 [10],8 nM
same,EC50,Toll-like receptor 7 [4],16 nM
CCCCn1cc2c(n1)c(N)nc1ccccc12,EC50,Toll-like receptor 8 [9],56 nM
same,EC50,Toll-like receptor 7 [17],190 nM
COc1cccc(C=O)c1O,IC50,TLR2/TLR6 [11],37200 nM
same,IC50,Toll-like receptor 1/2 [12],24200 nM
COc1ccc2c(-c3ccc(OCCCCO)c(C)c3)ccnc2c1,IC50,Toll-like receptor 8 [15],0.1 nM
